Converted amounts (≈) assume the structure as drawn. “And” between values parts separate entries of the source, which are not always exact repeats. Equal entries are not always repeated. “Also recorded” adds a separate entry of the source.

Consider 40 compounds from patent US20240182413A1, “INSECTICIDAL COMPOUNDS” (Pluton Biosciences, Inc., priority 2022, published 2024).

In the first data set the test system is Aedes aegypti larvae. Nature of the data set: Aedes aegypti killing assay (larval bioassay, two-fold dilution series). The data set is classed as in vivo. To be noted: Aedes aegypti, 72 h. Here is the method:
Insect killing assays. Each compound was dissolved in dimethyl sulfoxide (DMSO). Killing dose curves were constructed for each compound by producing a two-fold dilution series for each compound (e.g., comprising approximately 20 serial dilutions of a stock). Dilutions were made in sterile nutrient yeast extract salt medium (NYSM) broth. The NYSM contained 8 g/L nutrient broth powder, 0.5 g/L yeast extract, 1 mM MgCl2, 700 μM CaCl2, and 50 μM MnCl2 in water. The two-fold dilution series were tested in a killing bioassay as described below. Data were collected to construct a dose curve and determine the half-maximal lethal concentration (LC50) value.
Bioassays were performed using second or third instar Aedes aegypti larvae, with biological replication. Ae. aegpyti larvae were purchased from Benzon Research, Inc. (Carlisle, PA). Larvae were washed with sterile water before transfer to 24-well assay plates containing 1 mL of sterile water in each well. Each well contained 5 larvae. The final DMSO concentration in each assay well was 1%. Larval mortality was scored for each well at 24-hour timepoints after application. […] In Table 1, mean mortalities and standard deviations were calculated from at least three independent biological replicates. […] LC50 values were calculated using GraphPad Prism software.
Take `CC(c1c[nH]c2ccccc12)c1c[nH]c2ccccc12` [3,3′-(ethane-1,1-diyl)bis(1H-indole)]: the LC50 is 4.2 µg/mL and 16.1 µM. Take `c1ccc2[nH]ccc2c1` [indole]: the LC50 was 40.2 µg/mL and 344 µM. On to `c1ccc2c(C(c3ccncc3)c3c[nH]c4ccccc34)c[nH]c2c1` [3,3′-(pyridin-4-ylmethylene)bis(1H-indole)], for which the LC50 is 62.9 µg/mL and 194 µM. Take `Fc1ccc2[nH]cc(Cc3c[nH]c4ccc(F)cc34)c2c1` [3,3′-methylenebis(5-fluoro-1H-indole)]: the LC50 is 2.2 µg/mL and 7.8 µM. On the same count and under the same terms, with `Clc1ccc(C(c2c[nH]c3ccccc23)c2c[nH]c3ccccc23)cc1` [3,3′-((4-chlorophenyl)methylene)bis(1H-indole)] the figure was 2.6 µg/mL and 7.3 µM. `Cc1cn(C)c2ccccc12` [1,3 dimethylindole, 1,3-dimethylindole]: the LC50 is 13.8 µg/mL and 95.2 µM.

On to `Oc1ccc2[nH]ccc2c1` [5-hydroxyindole], for which the LC50 is 279 µg/mL and 2.09 mM.

`CN(C)Cc1c[nH]c2ccccc12` [gramine]: the LC50 is 189 µg/mL and 1.08 mM.

The data set is the same for the next values; noted with them: Aedes aegypti; second or third instar larvae; mortalities at 72 hours; mean ± standard deviation, at least three biological replicates; read-out: LC50.
Take `CCc1c[nH]c2ccccc12` [3-ethyl-1H-indole]: the LC50 is 60 ± 24.2 µM.

The same data set, now with this note: Aedes aegypti; second or third instar larvae; mortalities at 72 hours; mean ± standard deviation, at least three biological replicates; read-out: LC50 (μg/mL).
In the case of `CCc1c[nH]c2ccccc12` [3-ethyl-1H-indole], the LC50 came out at 8.7 ± 3.5 µg/mL.

Still in this data set, the particulars now being: in vivo.
Turning to `OCc1c[nH]c2ccccc12` [indole-3-carbinol], the LC50 is 453 ± 307 µM and the “LC50 (μg/mL)” value is 66.7 ± 45.2 µg/mL (≈ 453 µM). The corresponding values for `COc1ccc(C(c2c[nH]c3ccccc23)c2c[nH]c3ccccc23)cc1` [1,1-bis(3′-indolyl)-1-(p-methoxyphenyl)methane] are 66.6 ± 56.4 µM and 23.4 ± 19.8 µg/mL (≈ 66.4 µM).

Staying with this data set, now noted: larvae.
On to `c1ccc2c(C(c3ccncc3)c3c[nH]c4ccccc34)c[nH]c2c1` [3,3′-(pyridin-4-ylmethylene)bis(1H-indole)], for which the “killing activity against Aedes aegypti” value is “active”.

As for `c1ccc2c(-c3c[nH]c4ccccc34)c[nH]c2c1` [3,3′-diindolyl], the “killing activity against Aedes aegypti” value is “did not display any bioactivity; also recorded: does not have significant killing activity”.

Staying with this data set, now noted: second or third instar larvae; mortalities at 72 hours; mean ± standard deviation, at least three biological replicates.
Turning to `Cc1cc2ccccc2[nH]1` [2-methindole], the “LC50 (μg/mL)” value turned out to be 6.8 ± 0.5 µg/mL (≈ 51.8 µM). Regarding `c1ccc2c(-c3c[nH]c4ccccc34)c[nH]c2c1` [3,3′-diindolyl], the “LC50 (μg/mL)” value is more than 2500 µg/mL.

Still in this data set, the particulars now being: second or third instar larvae; mortalities at 72 hours; mean ± standard deviation, at least three biological replicates; read-out: LC50.
On to `Cc1cc2ccccc2[nH]1` [2-methindole], for which the LC50 came to 52.2 ± 3.6 µM.

`c1ccc2c(-c3c[nH]c4ccccc34)c[nH]c2c1` [3,3′-diindolyl]: the LC50 was more than 1000 µM.

A further data set has as its system Spodoptera frugiperda (fall armyworm) first instar larvae. The data set can be described thus: Spodoptera frugiperda killing assay (diet-surface overlay). The conditions noted are these: Spodoptera frugiperda, first instar larvae, N=16 per concentration; representative curve fit. It is filed as in vivo. Here is the method:
Insect killing assays. Each compound was dissolved in dimethyl sulfoxide (DMSO). Killing dose curves were constructed for each compound by producing a two-fold dilution series of the compound (e.g., comprising approximately 16 serial dilutions of a stock for 3,3′-diindolylmethane and 3-((1H-Indol-2-yl)methyl)-1H-indole and comprising approximately 12 serial dilutions of a stock for 3,3′-diindolyl and 3,3′-(pyridin-4-ylmethylene)bis(1H-indole)). Dilutions were made in sterile NYSM broth as described above. The two-fold dilution series were tested in a killing bioassay as described below. Data were collected to construct a dose curve and determine the half-maximal lethal concentration (LC50) value.
Bioassays were performed using first instar larvae of the Lepidopteran species Spodoptera frugiperda (fall armyworm), with an N=16 for each concentration of compound tested. S. frugiperda larvae were purchased from Benzon Research, Inc. (Carlisle, PA). A diet-surface overlay format was used in which 1 milliliter of standard lepidopteran diet was placed in each well. One hundred microliters of sample were pipetted into each well and allowed to dry. A DMSO control was included with each set of samples.
During the development of embodiments of the technology described herein, experiments were conducted to test the killing of arundine against a panel of 11 insect species. […] Briefly, arundine was dissolved in dimethyl sulfoxide (DMSO). Killing dose curves were constructed by producing a two-fold dilution series of arundine. Dilutions were made in sterile NYSM as described. The two-fold dilution series were tested in a killing bioassay performed using first instar larvae of the species listed in Table 4, with an N=16 for each concentration of compound tested. A diet-surface overlay format was used in which 1 milliliter of standard lepidopteran diet was placed in each well. One hundred microliters of sample were pipetted into each well and allowed to dry. A DMSO control was included with each set of samples. […] Data were collected to construct a dose curve and determine the half-maximal lethal concentration (LC50) value.
With `c1ccc2c(C(c3ccncc3)c3c[nH]c4ccccc34)c[nH]c2c1` [3,3′-(pyridin-4-ylmethylene)bis(1H-indole)], the LC50 was 120 µg/mL and 370 µM.

Still in this data set, the particulars now being: Spodoptera frugiperda, first instar larvae; calculated from killing dose curves FIG. 3D to 3NN; read-out: LD50 (the source's name).
In the case of `c1ccc(CC(c2c[nH]c3ccccc23)c2c[nH]c3ccccc23)cc1` [BIM-8], the LC50 was 1480 µM. The same measure, in the same setting: for `CCCC(c1c[nH]c2ccccc12)c1c[nH]c2ccccc12` [BIM-6] the value was 3240 µM; for `CC(c1c[nH]c2cc(Cl)ccc12)c1c[nH]c2cc(Cl)ccc12` [BIM-22], less than 3000 µM. In the case of `Clc1ccc(C(c2c[nH]c3cc(Cl)ccc23)c2c[nH]c3cc(Cl)ccc23)cc1` [BIM-33], the LC50 is 485 µM. For `Fc1ccc2c(Cc3c[nH]c4cc(F)ccc34)c[nH]c2c1` [BIM-13], the LC50 is 1850 µM. The same measure, in the same setting: with `CCCC(c1c[nH]c2cc(Cl)ccc12)c1c[nH]c2cc(Cl)ccc12` [BIM-24] the figure was 678 µM; with `Clc1cccc2[nH]cc(Cc3c[nH]c4cccc(Cl)c34)c12` [BIM-9], 1560 µM. On the same count and under the same terms, for `FC(F)(F)c1ccc2c(Cc3c[nH]c4cc(C(F)(F)F)ccc34)c[nH]c2c1` [BIM-21] the value was 974 µM; for `N#Cc1ccc2c(Cc3c[nH]c4cc(C#N)ccc34)c[nH]c2c1` [BIM-17], more than 10000 µM; for `CCC(c1c[nH]c2ccccc12)c1c[nH]c2ccccc12` [BIM-5], 2380 µM. Regarding `CC(c1c[nH]c2ccccc12)c1c[nH]c2ccccc12` [BIM-3], the LC50 is 1280 µM. Regarding `Clc1ccc2c(C(c3cccc(Br)c3)c3c[nH]c4cc(Cl)ccc34)c[nH]c2c1` [BIM-35], the LC50 was 429 µM. With `Cc1ccc2c(Cc3c[nH]c4cc(C)ccc34)c[nH]c2c1` [BIM-19], the LC50 is 1410 µM. Still for that read-out and setting: for `Brc1ccc2c(Cc3c[nH]c4cc(Br)ccc34)c[nH]c2c1` [BIM-14] the value was 934 µM; for `c1ccc(C(c2c[nH]c3ccccc23)c2c[nH]c3ccccc23)cc1` [BIM-7], 1680 µM; for `CCC(c1c[nH]c2cc(Cl)ccc12)c1c[nH]c2cc(Cl)ccc12` [BIM-23], 1350 µM.

Turning to `c1ccc2c(C(CCCC(c3c[nH]c4ccccc34)c3c[nH]c4ccccc34)c3c[nH]c4ccccc34)c[nH]c2c1` [BIM-27], the LC50 was more than 5000 µM.

Consider `CC(C)(c1c[nH]c2ccccc12)c1c[nH]c2ccccc12` [BIM-4], for which the LC50 is 1810 µM. In the case of `Ic1ccc2c(Cc3c[nH]c4cc(I)ccc34)c[nH]c2c1` [BIM-15], the LC50 is more than 10000 µM. On the same count and under the same terms, with `Clc1ccc2[nH]cc(Cc3c[nH]c4ccc(Cl)cc34)c2c1` [BIM-10] the figure was more than 3000 µM; with `Clc1cccc2c(Cc3c[nH]c4c(Cl)cccc34)c[nH]c12` [BIM-12], 1180 µM; with `Cn1cc(Cc2cn(C)c3ccccc23)c2ccccc21` [BIM-2], more than 3000 µM.

Still in this data set, the particulars now being: Spodoptera frugiperda, read-out: LD50 (μM).
For the compound `O=[N+]([O-])c1ccc2c(Cc3c[nH]c4cc([N+](=O)[O-])ccc34)c[nH]c2c1` [BIM-18], the LC50 was more than 10000 µM.

The same data set, now with this note: first instar larvae.
In the case of `c1ccc2c(C(c3ccncc3)c3c[nH]c4ccccc34)c[nH]c2c1` [3,3′-(pyridin-4-ylmethylene)bis(1H-indole)], the “activity against S. frugiperda” value is given as “active”. Take `c1ccc2c(-c3c[nH]c4ccccc34)c[nH]c2c1` [3,3′-diindolyl]: the “activity against S. frugiperda” value is recorded as “not active; also recorded: does not have significant killing activity”.

Still in this data set, the particulars now being: first instar larvae; calculated from killing dose curves FIG. 3D to 3NN; read-out: LD50 (the source's name).
On to `Clc1ccc2c(C(c3ccc(Br)cc3)c3c[nH]c4ccccc34)c[nH]c2c1` (centres unmarked) [BIM-37 R/S 1:1], for which the LC50 is 725 µM. On the same count and under the same terms, for `COc1ccc2c(Cc3c[nH]c4cc(OC)ccc34)c[nH]c2c1` [BIM-20] the value was more than 3000 µM; for `Clc1ccc2c(C(c3ccc(Br)cc3)c3c[nH]c4ccccc34)c[nH]c2c1` (centres unmarked) [BIM-37 R/S 3:1], 576 µM. In the case of `Clc1ccc2c(Cc3c[nH]c4ccccc34)c[nH]c2c1` [BIM-36], the LC50 was 2457 µM.
